Laboratory results reported in patent US20260140098A1, “METHOD FOR TREATING PLASMA SAMPLE CONTAINING (7aS,2'S)-2-OXO-CLOPIDOGREL AND METHOD FOR DETERMINING THE SAME” (CHENGDU SHIBEIKANG BIOMEDICAL TECHNOLOGY CO., LTD., priority 2021, published 2026).

Assay: Stability of (7aS,2′S)-2-oxo-clopidogrel in plasma, screening of TCEP dosage (Example 4)
Type: in vitro ADME
Description: S2. Plasma sample pre-treatment: taking 100 μl of the plasma, adding 5 μl of an internal standard working solution and 300 μl of acetonitrile respectively; after vortex mixing, centrifuging at 2-8° C. and 10,000 r/min for 10 min, and collecting the supernatant for later use.
S3. LC-MS/MS analysis: injecting 10 μl of the supernatant prepared from step S2 for determination, where the liquid chromatography conditions are: • the chromatographic column is Kinetex® 1.7 μm C18 100 A 100×2.1 mm; the column temperature is 40° C.; the mobile phase is acetonitrile-0.2% aqueous formic acid solution with a flow rate of 0.2 ml/min; and a gradient elution is carried out as specified in the table below:
ESI ion source, positive ion detection in multiple reaction monitoring mode (MRM); the quantitatively analyzed ions (7aS,2′S)-2-oxo-clopidogrel: m/z 338.100→155.000, IS: m/z 341.100→158.000, a capillary voltage of 4.0 KV, a cone voltage of 25 V, a desolvation gas temperature of 400° C. and a source temperature of 150° C. The optimal collision energy is 20 eV.
Blank plasma was taken and TCEP was added to prepare plasma containing TCEP at different concentrations (10, 50, 100 mg/ml). Subsequently, standard series solution of (7aS,2′S)-2-oxo-clopidogrel was added separately to prepare quality control samples with two concentrations of (7aS,2′S)-2-oxo-clopidogrel (0.1 and 12.0 ng/ml), 3 samples for each concentration. They were placed at room temperature and on ice, respectively, and the plasma samples at different placing time points were taken to examine the stability by pre-treating the plasma samples according to the method of S2 of Example 1, followed by LC/MS/MS determination according to the method of S3.

**Q.** Which results are given for COC(=O)[C@H](c1ccccc1Cl)N1CC[C@@H]2SC(=O)C=C2C1 [(7aS,2′S)-2-oxo-clopidogrel, methyl(S)-2-(2-chlorophenyl)-2-((S)-2-oxo-2,6,7,7a-tetrahydrothieno[3,2-c]pyridin-5 (4H)-yl)acetate]?
**A.** Measured concentration (No TCEP, theoretical 0.1 ng/mL, on ice, 0 min): 0.0965 ng/mL; Measured concentration (No TCEP, theoretical 0.1 ng/mL, on ice, 30 min): 0.0842 ng/mL; Measured concentration (No TCEP, theoretical 0.1 ng/mL, on ice, 60 min): 0.0763 ng/mL; Measured concentration (No TCEP, theoretical 0.1 ng/mL, on ice, 120 min): 0.0622 ng/mL; Measured concentration (No TCEP, theoretical 0.1 ng/mL, room temperature, 0 min): 0.0965 ng/mL; Measured concentration (No TCEP, theoretical 0.1 ng/mL, room temperature, 30 min): 0.0782 ng/mL; Measured concentration (No TCEP, theoretical 0.1 ng/mL, room temperature, 60 min): 0.0633 ng/mL; Measured concentration (No TCEP, theoretical 0.1 ng/mL, room temperature, 120 min): 0.0529 ng/mL; Measured concentration (No TCEP, theoretical 12.0 ng/mL, on ice, 0 min): 12.3 ng/mL; Measured concentration (No TCEP, theoretical 12.0 ng/mL, on ice, 30 min): 10.3 ng/mL; Measured concentration (No TCEP, theoretical 12.0 ng/mL, on ice, 60 min): 9.65 ng/mL; Measured concentration (No TCEP, theoretical 12.0 ng/mL, on ice, 120 min): 7.23 ng/mL; Measured concentration (No TCEP, theoretical 12.0 ng/mL, room temperature, 0 min): 12.3 ng/mL; Measured concentration (No TCEP, theoretical 12.0 ng/mL, room temperature, 30 min): 9.45 ng/mL; Measured concentration (No TCEP, theoretical 12.0 ng/mL, room temperature, 60 min): 8.38 ng/mL; Measured concentration (No TCEP, theoretical 12.0 ng/mL, room temperature, 120 min): 6.57 ng/mL; Measured concentration (TCEP 10 mg/ml, theoretical 0.1 ng/mL, on ice, 0 min): 0.0965 ng/mL; Measured concentration (TCEP 10 mg/ml, theoretical 0.1 ng/mL, on ice, 30 min): 0.0942 ng/mL; Measured concentration (TCEP 10 mg/ml, theoretical 0.1 ng/mL, on ice, 60 min): 0.0863 ng/mL; Measured concentration (TCEP 10 mg/ml, theoretical 0.1 ng/mL, on ice, 120 min): 0.0782 ng/mL; Measured concentration (TCEP 10 mg/ml, theoretical 0.1 ng/mL, room temperature, 0 min): 0.0965 ng/mL; Measured concentration (TCEP 10 mg/ml, theoretical 0.1 ng/mL, room temperature, 30 min): 0.0952 ng/mL; Measured concentration (TCEP 10 mg/ml, theoretical 0.1 ng/mL, room temperature, 60 min): 0.0833 ng/mL; Measured concentration (TCEP 10 mg/ml, theoretical 0.1 ng/mL, room temperature, 120 min): 0.0729 ng/mL; Measured concentration (TCEP 10 mg/ml, theoretical 12.0 ng/mL, on ice, 0 min): 12.3 ng/mL; Measured concentration (TCEP 10 mg/ml, theoretical 12.0 ng/mL, on ice, 30 min): 11.9 ng/mL; Measured concentration (TCEP 10 mg/ml, theoretical 12.0 ng/mL, on ice, 60 min): 10.65 ng/mL; Measured concentration (TCEP 10 mg/ml, theoretical 12.0 ng/mL, on ice, 120 min): 9.92 ng/mL; Measured concentration (TCEP 10 mg/ml, theoretical 12.0 ng/mL, room temperature, 0 min): 12.3 ng/mL; Measured concentration (TCEP 10 mg/ml, theoretical 12.0 ng/mL, room temperature, 30 min): 11.7 ng/mL; Measured concentration (TCEP 10 mg/ml, theoretical 12.0 ng/mL, room temperature, 60 min): 10.4 ng/mL; Measured concentration (TCEP 10 mg/ml, theoretical 12.0 ng/mL, room temperature, 120 min): 9.45 ng/mL; Measured concentration (TCEP 50 mg/ml, theoretical 0.1 ng/mL, on ice, 0 min): 0.0965 ng/mL; Measured concentration (TCEP 50 mg/ml, theoretical 0.1 ng/mL, on ice, 30 min): 0.0956 ng/mL; Measured concentration (TCEP 50 mg/ml, theoretical 0.1 ng/mL, on ice, 60 min): 0.0932 ng/mL; Measured concentration (TCEP 50 mg/ml, theoretical 0.1 ng/mL, on ice, 120 min): 0.0911 ng/mL; Measured concentration (TCEP 50 mg/ml, theoretical 0.1 ng/mL, room temperature, 0 min): 0.0965 ng/mL; Measured concentration (TCEP 50 mg/ml, theoretical 0.1 ng/mL, room temperature, 30 min): 0.0935 ng/mL; Measured concentration (TCEP 50 mg/ml, theoretical 0.1 ng/mL, room temperature, 60 min): 0.0914 ng/mL; Measured concentration (TCEP 50 mg/ml, theoretical 0.1 ng/mL, room temperature, 120 min): 0.0895 ng/mL; Measured concentration (TCEP 50 mg/ml, theoretical 12.0 ng/mL, on ice, 0 min): 12.3 ng/mL; Measured concentration (TCEP 50 mg/ml, theoretical 12.0 ng/mL, on ice, 30 min): 12.2 ng/mL; Measured concentration (TCEP 50 mg/ml, theoretical 12.0 ng/mL, on ice, 60 min): 11.9 ng/mL; Measured concentration (TCEP 50 mg/ml, theoretical 12.0 ng/mL, on ice, 120 min): 11.4 ng/mL; Measured concentration (TCEP 50 mg/ml, theoretical 12.0 ng/mL, room temperature, 0 min): 12.3 ng/mL; Measured concentration (TCEP 50 mg/ml, theoretical 12.0 ng/mL, room temperature, 30 min): 12.1 ng/mL; Measured concentration (TCEP 50 mg/ml, theoretical 12.0 ng/mL, room temperature, 60 min): 11.9 ng/mL; Measured concentration (TCEP 50 mg/ml, theoretical 12.0 ng/mL, room temperature, 120 min): 10.6 ng/mL; Measured concentration (TCEP 100 mg/ml, theoretical 0.1 ng/mL, on ice, 0 min): 0.0965 ng/mL; Measured concentration (TCEP 100 mg/ml, theoretical 0.1 ng/mL, on ice, 30 min): 0.0958 ng/mL; Measured concentration (TCEP 100 mg/ml, theoretical 0.1 ng/mL, on ice, 60 min): 0.0942 ng/mL; Measured concentration (TCEP 100 mg/ml, theoretical 0.1 ng/mL, on ice, 120 min): 0.0951 ng/mL; Measured concentration (TCEP 100 mg/ml, theoretical 0.1 ng/mL, room temperature, 0 min): 0.0965 ng/mL; Measured concentration (TCEP 100 mg/ml, theoretical 0.1 ng/mL, room temperature, 30 min): 0.0955 ng/mL; Measured concentration (TCEP 100 mg/ml, theoretical 0.1 ng/mL, room temperature, 60 min): 0.0934 ng/mL; Measured concentration (TCEP 100 mg/ml, theoretical 0.1 ng/mL, room temperature, 120 min): 0.0915 ng/mL; Measured concentration (TCEP 100 mg/ml, theoretical 12.0 ng/mL, on ice, 0 min): 12.3 ng/mL; Measured concentration (TCEP 100 mg/ml, theoretical 12.0 ng/mL, on ice, 30 min): 12.4 ng/mL; Measured concentration (TCEP 100 mg/ml, theoretical 12.0 ng/mL, on ice, 60 min): 12.1 ng/mL; Measured concentration (TCEP 100 mg/ml, theoretical 12.0 ng/mL, on ice, 120 min): 11.8 ng/mL; Measured concentration (TCEP 100 mg/ml, theoretical 12.0 ng/mL, room temperature, 0 min): 12.3 ng/mL; Measured concentration (TCEP 100 mg/ml, theoretical 12.0 ng/mL, room temperature, 30 min): 12.2 ng/mL; Measured concentration (TCEP 100 mg/ml, theoretical 12.0 ng/mL, room temperature, 60 min): 11.9 ng/mL; Measured concentration (TCEP 100 mg/ml, theoretical 12.0 ng/mL, room temperature, 120 min): 11.6 ng/mL; Stability in plasma (in words) (TCEP added at a concentration of 50 mg/ml or more): good stability
